Experimental data reported in paper PMC4657727 (Biochemistry, 2013).

B1: CNGA3: A3N339Q (protein)
parent chain: MAKINTQYSHPSRTHLKVKTSDRDLNRAENGLSRAHSSSEETSSVLQPGIAMETRGLADSGQGSFTGQGIARLSRLIFLLRRWAARHVHHQDQGPDSFPDRFRGAELKEVSSQESNAQANVGSQEPADRGRSAWPLAKCNTNTSNNTEEEKKTKKKDAIVVDPSSNLYYRWLTAIALPVFYNWYLLICRACFDELQSEYLMLWLVLDYSADVLYVLDVLVRARTGFLEQGLMVSDTNRLWQHYKTTTQFKLDVLSLVPTDLAYLKVGTNYPEVRFNRLLKFSRLFEFFDRTETRTNYPNMFRIGNLVLYILIIIHWNACIYFAISKFIGFGTDSWVYPNISIPEHGRLSRKYIYSLYWSTLTLTTIGETPPPVKDEEYLFVVVDFLVGVLIFATIVGNVGSMISNMNASRAEFQAKIDSIKQYMQFRKVTKDLETRVIRWFDYLWANKKTVDEKEVLKSLPDKLKAEIAINVHLDTLKKVRIFQDCEAGLLVELVLKLRPTVFSPGDYICKKGDIGKEMYIINEGKLAVVADDGVTQFVVLSDGSYFGEISILNIKGSKSGNRRTANIRSIGYSDLFCLSKDDLMEALTEYPEAKKALEEKGRQILMKDNLIDEELARAGADPKDLEEKVEQLGSSLDTLQTRFARLLAEYNATQMKMKQRLSQLESQVKGGGDKPLADGEVPGDATKTEDKQQ

How the values were obtained:
[1] = target: T1, A3+B3 (heteromeric CNGA3 + CNGB3) channels (Homo sapiens, UniProt Q16281+Q9NQW8); test: inside-out patch clamp, macroscopic current dose-response, Hill fit; format: cell-based
T1 sequence (Q16281 1-694): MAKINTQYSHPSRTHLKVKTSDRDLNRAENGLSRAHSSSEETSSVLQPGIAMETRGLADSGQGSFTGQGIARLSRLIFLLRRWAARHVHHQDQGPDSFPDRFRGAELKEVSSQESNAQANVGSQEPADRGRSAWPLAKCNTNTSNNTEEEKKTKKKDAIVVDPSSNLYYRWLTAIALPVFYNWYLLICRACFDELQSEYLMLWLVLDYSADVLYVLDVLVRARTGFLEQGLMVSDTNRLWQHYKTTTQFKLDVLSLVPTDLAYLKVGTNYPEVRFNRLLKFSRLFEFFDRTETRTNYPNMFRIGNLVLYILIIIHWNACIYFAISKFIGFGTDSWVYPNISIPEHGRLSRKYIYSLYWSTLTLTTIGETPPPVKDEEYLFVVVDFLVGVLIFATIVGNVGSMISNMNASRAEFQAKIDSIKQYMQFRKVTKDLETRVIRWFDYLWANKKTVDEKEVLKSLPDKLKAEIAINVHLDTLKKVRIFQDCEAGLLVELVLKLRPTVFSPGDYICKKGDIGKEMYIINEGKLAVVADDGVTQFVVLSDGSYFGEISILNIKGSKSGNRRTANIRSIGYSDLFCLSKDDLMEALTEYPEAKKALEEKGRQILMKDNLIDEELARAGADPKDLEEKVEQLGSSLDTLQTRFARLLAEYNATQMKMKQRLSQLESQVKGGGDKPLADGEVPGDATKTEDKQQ
T1 sequence (Q9NQW8 1-809): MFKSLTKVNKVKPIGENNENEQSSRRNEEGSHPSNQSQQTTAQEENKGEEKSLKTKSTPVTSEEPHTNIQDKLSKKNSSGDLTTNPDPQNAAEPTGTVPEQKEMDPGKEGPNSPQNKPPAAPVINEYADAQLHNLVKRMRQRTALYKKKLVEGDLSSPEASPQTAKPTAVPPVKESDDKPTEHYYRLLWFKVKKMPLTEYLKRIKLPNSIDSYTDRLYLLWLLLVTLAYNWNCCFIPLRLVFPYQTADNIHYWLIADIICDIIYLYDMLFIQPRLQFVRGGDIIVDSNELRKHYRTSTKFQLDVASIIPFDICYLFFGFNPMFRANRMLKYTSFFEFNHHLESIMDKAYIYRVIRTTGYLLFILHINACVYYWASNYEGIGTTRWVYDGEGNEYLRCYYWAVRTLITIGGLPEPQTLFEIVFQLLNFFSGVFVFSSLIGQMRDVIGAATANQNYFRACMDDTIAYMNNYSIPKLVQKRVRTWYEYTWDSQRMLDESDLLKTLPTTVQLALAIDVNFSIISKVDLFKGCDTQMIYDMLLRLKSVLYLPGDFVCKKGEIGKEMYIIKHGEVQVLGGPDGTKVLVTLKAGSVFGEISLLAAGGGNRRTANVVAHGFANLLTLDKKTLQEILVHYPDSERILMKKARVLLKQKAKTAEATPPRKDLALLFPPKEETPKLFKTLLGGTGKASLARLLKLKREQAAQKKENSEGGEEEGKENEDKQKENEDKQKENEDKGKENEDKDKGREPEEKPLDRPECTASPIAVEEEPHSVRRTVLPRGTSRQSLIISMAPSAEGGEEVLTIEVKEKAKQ

[2] = target: T2, A3 (homomeric CNGA3) channels (Homo sapiens, UniProt Q16281); test: as above; format: cell-based
T2 sequence (Q16281 1-694): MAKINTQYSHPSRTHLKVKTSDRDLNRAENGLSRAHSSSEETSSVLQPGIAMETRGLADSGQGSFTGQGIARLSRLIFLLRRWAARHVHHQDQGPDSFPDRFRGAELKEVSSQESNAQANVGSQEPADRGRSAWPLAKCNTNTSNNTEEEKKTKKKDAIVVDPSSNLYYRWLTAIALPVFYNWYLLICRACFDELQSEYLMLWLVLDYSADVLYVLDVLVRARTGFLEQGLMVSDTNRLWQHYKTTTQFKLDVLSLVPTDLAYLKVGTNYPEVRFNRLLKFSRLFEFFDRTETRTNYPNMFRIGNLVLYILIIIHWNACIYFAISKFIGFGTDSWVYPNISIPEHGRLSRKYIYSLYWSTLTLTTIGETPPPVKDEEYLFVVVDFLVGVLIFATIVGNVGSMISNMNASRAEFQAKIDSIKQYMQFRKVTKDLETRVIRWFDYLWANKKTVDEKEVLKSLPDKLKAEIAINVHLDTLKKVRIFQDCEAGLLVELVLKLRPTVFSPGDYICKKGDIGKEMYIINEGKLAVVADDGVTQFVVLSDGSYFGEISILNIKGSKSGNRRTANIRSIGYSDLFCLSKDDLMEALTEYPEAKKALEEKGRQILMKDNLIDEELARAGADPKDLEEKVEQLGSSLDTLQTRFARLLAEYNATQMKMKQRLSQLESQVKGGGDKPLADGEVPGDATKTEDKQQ

[3] = anti-FLAG immunoblot, intact oocytes exposed to MMPs 1 h; details: glycan lost; control: glycosylated form of A3wt subunits

Molecule | EC50 [1] [µM] | EC50 [2] [µM] | other: proteolytic processing [3]
Nc1nc2c(ncn2[C@@H]2O[C@@H]3COP(=O)(O)O[C@H]3[C@H]2O)c(=O)[nH]1 [cGMP] | 15.2 ± 1.1 | 5.6 ± 1 | –
B1 | – | – | increases
